Paper PMC11634579, “Network pharmacology, experimental validation and pharmacokinetics integrated strategy to reveal pharmacological mechanism of goutengsan on methamphetamine dependence” (Frontiers in Pharmacology, 2024)
Entries after “also recorded” stand apart in the source; their conditions may differ. Where a name gives a salt, the structure may show the parent alone.

Experiments:
[1] = MTT detection of cell viability; assay type: cell-based, human; details: human, SH-SY5Y cells, 200 μmol ·L^−1, 48 h
Protocol: (§1) SH-SY5Y cells were inoculated into a 96-well plate. […] After 48 h of incubation at 6 wells per concentration, MTT was added for 4 h. Then incubation was stopped, the liquid was discarded, and dimethyl sulfoxide was added. After horizontal shakening for 5 min, the absorbance at 490 nm was measured using an enzyme-linked immunosorbent assay (Elisa) reader ([Yang et al., 2018]).

[2] = test system: SH-SY5Y cells; assay: MTT detection of cell viability; assay type: cell-based, human; details: 48 h
Protocol: as §1

[3] = Pharmacokinetics and brain tissue distribution after gavage of GTS (UPLC-MS); assay type: in vivo, Babl/c mice; details: mice
Protocol: Animal experiments: Babl/c mice weighing 18–22 g (6–8 weeks old) with equal numbers of males and females, were provided by the Experimental Animal Center of Southern Medical University. The mice were maintained at room temperature (20 ± 2) °C, humidity (60 ± 5)%, 12 h light cycles, and provided an ad libitum diet. Thirty mice were randomly divided into 0.5, 2, 4, 6 and 9 h groups, with 6 mice each. An infusion at concentration of 2.75 g of GTS crude drug/mL was obtained, and the drug was administered by gavage at a dose of 2 mL GTS infusion drug/kg. After 0.5, 2, 4, 6 and 9 h of administration, the plasma and brain tissues in the 0.5, 2, 4, 6 and 9 h groups were collected. The plasma and brain tissue samples were processed in accordance with biological sample processing procedures.
Establishment of UPLC-MS method: An LCMS-8050 liquid chromatography mass spectrometer (Shimadzu, Japan) was operated with a horizon C18 column (100 × 2.1 mm, 3 µm). The mobile phase was 0.1% formic acid in water (A) - acetonitrile (B), and the gradient elution was 0–8 min, 10%–50% B; 8–9 min, 50%–10% B; 9–11 min, 10% B. The column temperature was 30°C, the injection volume was 5 μL, and flow rate was 0.4 mL min^−1. The mass spectrometry conditions included HPLC-MS/MS in […] full-scan and sub-ion scanning modes, an electrospray ionization source (ESI), positive and negative ion mode detection, and nebulizing gas of nitrogen (N2). The zeroed gas flow rate was 3 L min^−1, desolventization temperature was 526°C, and DL temperature was 250°C. Then the parent ion, daughter ion, collision energy, and polarity of the above components were determined (Table 2).

[4] = set-up: method as in Ru et al., 2014; details: obtained from TCMSP database; ref Ru et al., 2014; cited from earlier work
[5] = test system: cAMP; assay: Elisa detection of cAMP in MA-induced SH-SY5Y cells; assay type: cell-based, human; details: vs MA model group (100 μmol ·L^−1 MA, 48 h); 4x equivalent dose GTS-containing serum, MK-801 100 μmol ·L^−1
Protocol: (§2) An equal volume of the complete culture medium was added to the control group. The drug-containing culture medium (100 μmol ·L^−1 MA) was added to MA model group. […] After medication, all groups were continued for 48 h, photographed, and used for the next experiment.
(§3) The above SH-SY5Y cells were inoculated onto a 6-well plate, and cultured for 24 h. Then the culture medium was aspirated. The cells were rinsed with phosphate buffered salt (PBS) once. After PBS was removed, a hydrochloric acid solution was added. The cells were scraped to form cell suspension. After centrifugation, the supernatant was extracted, and the cAMP and 5-HT levels of the cells were detected according to the instructions of an Elisa reagent kit (Dakewei Biotechnology Co., Ltd.) ([Zhan et al., 2022]).

[6] = test system: pyramidal cells in hippocampal CA1; assay: HE staining of rat hippocampal CA1 after CPP test; assay type: in vivo, Sprague-Dawley (SD) rats; details: vs MA model group
Source text: After the CPP test, a cervical dislocation method was used to euthanize the rats. The brain tissue of each rat was cut along the midline of the sagittal plane in the head. […] The hippocampus consists of CA1, CA2, CA3, and CA4. Specifically, CA1 is mainly composed of […], and is more suitable for MA-dependent observation ([Zhong et al., 2012]). Therefore, the pyramidal cells in hippocampal CA1 were mainly observed after hematoxylin-eosin (HE) staining. The hippocampal CA1 after HE staining was observed under microscopy and then photographed.

[7] = test system: 5-HT; assay: Elisa detection of 5-HT in MA-induced SH-SY5Y cells; assay type: cell-based, human; details: vs MA model group (100 μmol ·L^−1 MA, 48 h); 4x equivalent dose GTS-containing serum, MK-801 100 μmol ·L^−1
Protocol: as §2, §3

[8] = test system: MA-induced CPP effect; assay: MA-dependent rat conditioned place preference (CPP) model; assay type: in vivo, Sprague-Dawley (SD) rats; details: vs MA model group, GTS 11.00 g crude drug/kg i.p., MK-801 10 mg/kg i.p.
Protocol: Male Sprague-Dawley (SD) rats weighing 180–220 g (2 months old) were provided by the Experimental Animal Center of Southern Medical University. The rats were maintained at room temperature (20 ± 2) °C, humidity (60 ± 5)%, 12 h light cycles, and provided an ad libitum diet. Before commencing the experiment, the rats were allowed to acclimatize for a minimum of 3 days. The Southern Medical University Experimental Animal Ethics Committee approved all animal experiments, which were conducted in accordance with the National Institutes of Health Guide for the Care and Use of Laboratory Animals (NIH publication #85–23, revised 1985). […] An MA-dependent rat CPP model was established in our previous studies and MA was used at 2 mg/kg ([Li et al., 2018b]). […] Before administration, determine the dosing volume based on each rat’s body weight; for example, a 200 g rat would receive a 1 mL dose.
Given the scarcity and specificity of […], we decided to use a 4x equivalent dose of GTS as the therapeutic dose. Thus, in the current study, only one treatment dose group of GTS was selected.
The CPP exam was made up of three phases over the course of 10 days (Figure 5A). During the habituation phase (days 1–3), each rat was allowed to move freely firom the black to white compartment for 30 min each day. On day 3, rats were videotaped throughout a 15-min trial and their movement trajectories, time spent and total movement distances were recorded. The door was closed to keep the two compartments apart during the conditioning period (on days 4–9). […] Rats were given the same amount of physiological saline (s.c.) in each group after an 8-h break, and they were then promptly segregated into the black compartment for 1 h. […] At 0:00 a.m. on day 10 (testing phase), the formal CPP testing began, rats were videotaped throughout a 15-min trial using Noldus Ethovision XT 8.5 software, and their movement trajectories, time spent and total movement distances were recorded.

[9] = after oral administration of GTS
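For BBB (blood–brain–barrier) in this document: unitless TCMSP predicted score with screening cut-off BBB at least 0.3.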

CN[C@@H](C)Cc1ccccc1 [MA, Methamphetamine hydrochloride]
viability at 48 h, 200 μmol·L^−1 [1]: < 90%
maximum safe dose [2]: 100 µmol/L

O=C1C[C@@H](c2ccc(O[C@@H]3O[C@H](CO)[C@@H](O)[C@H](O)[C@H]3O)cc2)Oc2cc(O)ccc21 [Liquiritin]
detection in brain tissues [3, 9]: undetectable
detection in plasma [3, 9]: detectable in plasma and at high levels
BBB (blood–brain–barrier) [4]: 0.61
OB% (oral bioavailability) [4]: 58.81%

O=C(/C=C/c1ccc(O)c(O)c1)O[C@@H]1C[C@](O)(C(=O)O)C[C@@H](O)[C@H]1O [Chlorogenic acid]
exposure in plasma and brain [3, 9]: exposed in the plasma and brain; also recorded: absorbed into the bloodstream and distributed to brain tissues
BBB (blood–brain–barrier) [4]: 0.94
OB% (oral bioavailability) [4]: 30.70%

COc1c2c(cc3oc(C)cc(=O)c13)OC(C(C)(C)O[C@@H]1O[C@H](CO)[C@@H](O)[C@H](O)[C@H]1O)C2 (stereo partly shown) [5-O-Methylviscumaboloside]
exposure in plasma and brain [3, 9]: exposed in the plasma and brain
time at which concentration in brain peaked ([3]; gavage of GTS infusion (2.75 g crude drug/mL, 2 mL/kg), sampling 0.5, 2, 4, 6, 9 h): 6 h
BBB (blood–brain–barrier) [4]: 0.56
OB% (oral bioavailability) [4]: 32.47%

C[C@]12N[C@H](Cc3ccccc31)c1ccccc12 [MK-801, Dizocilpine]
level of cAMP in SH-SY5Y cells [5]: same trend as GTS treatment group
damage of pyramidal cells in hippocampal CA1 (HE staining) [6]: significantly reduced damage
level of 5-HT in SH-SY5Y cells [7]: same trend as GTS treatment group
movement trajectory in CPP box after MA training ([8]; once daily days 5–9): significantly decreased
time spent in the white box after MA training ([8]; n = 10): same trend as GTS treatment group
total movement distances in the white box after MA training ([8]; n = 10): same trend as GTS treatment group
